In one test the test system is HBsAg. Nature of the test: HBsAg assay (chemiluminescence immunoassay of secreted HBsAg). It is filed as cell-based, HBV. As to conditions: HepG2.2.15 cells, CLIA of culture supernatant. Summed up: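 HepG2.2.15 cells, in duplicate, treated with three-fold serial compound dilutions (1% DMSO final); secreted HBsAg in supernatant quantified by chemiluminescence immunoassay; IC50 is the concentration reducing HBsAg secretion by 50% versus the DMSO control.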

Another test has as its system HBV DNA. The test can be described thus: HBV DNA assay (real-time qPCR of extracellular HBV DNA). Type of test: cell-based. The settings on record: Hepatitis B virus, 144 h; Anti HBV DNA production activity in HepG2.2.15 cells; supernatant collected six days after treatment. On the procedure:
HepG2.2.15 cells (Acs et al. Proc Natl Acad Sci USA, 84, (1987), 4641-4), a constitutively HBV-expressing cell line were cultured in DMEM+Glutamax-I medium (Invitrogen, Carlsbad, Calif., USA), supplemented with 10% fetal bovine serum (Invitrogen) and G418 (Invitrogen) at a final concentration of 200 mg/L and maintained in 5% CO2 at 37° C.
The assay employs real-time qPCR (TaqMan) to directly measure extracellular HBV DNA copy number in the cell supernatant. HepG2.2.15 cells were plated in 96-well microtiter plates before treatment with complete medium (DMEM, Glutamax, 10% FBS, 1% Penicillin/Streptomycin, 250 μg/mL Genetycin, final DMSO concentration is 1%/o). Only the interior wells were utilized to reduce “edge effects” observed during cell culture, the exterior wells were filled with complete medium to help minimize sample evaporation. The HepG2.2.15 cells were treated 1 h later with various concentrations of a test compound in duplicate (top concentration used at 5 μM, 2 μM or 0.5 μM according to the HBsAg IC50 observed, with ⅓ successive dilutions (total of 10 dilutions). Six days following the initial administration of the test compound, the cell culture supernatant was collected; DNA extraction was performed by automated system (Magnapure) and then used in a real-time qPCR/TaqMan assay to determine HBV DNA copy numbers. Antiviral activity was calculated from the reduction in HBV DNA levels (IC50).
The compounds of the present invention were tested for their capacity to inhibit HBV DNA as described herein.
Background: Quantitative PCR measures a nucleic acid by following its amplification.

[1] abbreviates: Hepatitis B virus, HepG2.2.15, HBsAg secretion.

This note sets out measurements from patent publication US11104674B2 (Hoffmann-La Roche Inc., priority 2016, dated 2021).

Structures are written as SMILES.

As a reminder, the IC50 is the concentration that inhibits the measured activity by half. On to `C[C@@H]1c2cnc(-c3ncccn3)nc2CCN1c1cc(N2CCN(S(C)(=O)=O)CC2)cc(F)n1` [Example 97, (−)-6-[6-Fluoro-4-(4-methylsulfonylpiperazin-1-yl)-2-pyridyl]-5-methyl-2-pyrimidin-2-yl-7,8-dihydro-5H-pyrido[4,3-d]pyrimidine], for which the results for the IC50 in the test on HBsAg (HBsAg secretion) and in the test on HBV DNA were 3 nM and 1.9 nM, respectively.
Turning to `COC1CCN(c2cc(F)nc(N3CCc4nc(-c5ncccn5)ncc4C3C)c2)C1` (stereo not shown) [Example 20, 6-[6-fluoro-4-(3-methoxypyrrolidin-1-yl)-2-pyridyl]-5-methyl-2-pyrimidin-2-yl-7,8-dihydro-5H-pyrido[4,3-d]pyrimidine], the IC50 turned out to be 10 nM in the test with HBsAg (setting [1]) and 0.15 nM with HBV DNA.
For `COC1CN(c2cc(F)nc(N3CCc4nc(-c5ncccn5)ncc4C3C)c2)C1` (stereo not shown) [Example 112, 6-[6-fluoro-4-(3-methoxyazetidin-1-yl)-2-pyridyl]-5-methyl-2-pyrimidin-2-yl-7,8-dihydro-5H-pyrido[4,3-d]pyrimidine] the same measures were 6 nM and 0.6 nM.
Consider `CC1c2cnc(-c3ncccn3)nc2CCN1c1cc(N2CCCS2(=O)=O)cc(F)n1` (stereo not shown) [Example 115, 2-[2-Fluoro-6-(5-methyl-2-pyrimidin-2-yl-7,8-dihydro-5H-pyrido[4,3-d]pyrimidin-6-yl)-4-pyridyl]-1,2-thiazolidine1,1-dioxide], for which the IC50 in the test on HBsAg (setting [1]) amounted to 4 nM; in the test with HBV DNA, 3.2 nM.
The compound `CCC1CN(c2cc(F)cc(N3CCc4nc(-c5ncccn5)ncc4C3C)n2)CCO1` (stereo not shown) [Example 7, 2-ethyl-4-[4-fluoro-6-(5-methyl-2-pyrimidin-2-yl-7,8-dihydro-5H-pyrido[4,3-d]pyrimidin-6-yl)-2-pyridyl]morpholine] displayed an IC50 in the test with HBsAg (setting [1]) of 42 nM.
Same read-out and setting: in the case of `CC1c2cnc(-c3ncccn3)nc2CCN1c1cc(N2CCC(O)C2)cc(F)n1` (stereo not shown) [Example 36, 1-[2-fluoro-6-(5-methyl-2-pyrimidin-2-yl-7,8-dihydro-5H-pyrido[4,3-d]pyrimidin-6-yl)-4-pyridyl]pyrrolidin-3-ol] it was 12 nM; in that of `CC1c2cnc(-c3ncccn3)nc2CCN1c1cc(F)nc(N2CC3(COC3)C2)c1` (stereo not shown) [Example 158, 6-[6-Fluoro-4-(5-methyl-2-pyrimidin-2-yl-7,8-dihydro-5H-pyrido[4,3-d]pyrimidin-6-yl)-2-pyridyl]-2-oxa-6-azaspiro[3.3]heptane], 48 nM; in that of `CC1c2cnc(-c3ncccn3)nc2CCN1c1cc(N2CCOC(C(=O)O)C2)cc(F)n1` (stereo not shown) [Example 26, 4-[2-fluoro-6-(5-methyl-2-pyrimidin-2-yl-7,8-dihydro-5H-pyrido[4,3-d]pyrimidin-6-yl)-4-pyridyl]morpholine-2-carboxylic acid], 2320 nM.
Still for that read-out and setting: for `CC1c2cnc(-c3ncccn3)nc2CCN1c1cc(N2CCCC2CO)cc(F)n1` (stereo not shown) [Example 30, [1-[2-fluoro-6-(5-methyl-2-pyrimidin-2-yl-7,8-dihydro-5H-pyrido[4,3-d]pyrimidin-6-yl)-4-pyridyl]pyrrolidin-2-yl]methanol] the value was 7 nM.
The same measure, in the same setting: for `CC1c2cnc(-c3ncccn3)nc2CCN1c1cc(N2CCN(S(C)(=O)=O)C(C)C2)cc(F)n1` (stereo not shown) [Example 106, 6-[6-fluoro-4-(3-methyl-4-methylsulfonyl-piperazin-1-yl)-2-pyridyl]-5-methyl-2-pyrimidin-2-yl-7,8-dihydro-5H-pyrido[4,3-d]pyrimidine] the value was 7 nM; for `CC1c2cnc(-c3ncccn3)nc2CCN1c1cc(F)nc(N2CC(F)(F)C2)c1` (stereo not shown) [Example 149, 6-[2-(3,3-Difluoroazetidin-1-yl)-6-fluoro-4-pyridyl]-5-methyl-2-pyrimidin-2-yl-7,8-dihydro-5H-pyrido[4,3-d]pyrimidine], 20 nM.
`CC1c2cnc(-c3ncccn3)nc2CCN1c1cc(N(C)S(=O)(=O)C2CC2)cc(F)n1` (stereo not shown) [Example 160, N-[2-fluoro-6-(5-methyl-2-pyrimidin-2-yl-7,8-dihydro-5H-pyrido[4,3-d]pyrimidin-6-yl)-4-pyridyl]-N-methyl-cyclopropanesulfonamide]: 6 nM corresponded to half-maximal inhibition in the test on HBsAg (setting [1]) (IC50).
Still for that read-out and setting: for `CC1c2cnc(-c3ccccn3)nc2CCN1c1cc(F)cc(N2CCC(C(N)=O)C2)n1` (stereo not shown) [Example 61, 1-[4-fluoro-6-[5-methyl-2-(2-pyridyl)-7,8-dihydro-5H-pyrido[4,3-d]pyrimidin-6-yl]-2-pyridyl]pyrrolidine-3-carboxamide] the value was 22 nM.
In the test with HBsAg (setting [1]), `CC1c2cnc(-c3ncccn3)nc2CCN1c1cc(N2CCC(NS(C)(=O)=O)CC2)cc(F)n1` (stereo not shown) [Example 88, N-[1-[2-fluoro-6-(5-methyl-2-pyrimidin-2-yl-7,8-dihydro-5H-pyrido[4,3-d]pyrimidin-6-yl)-4-pyridyl]-4-piperidyl]methanesulfonamide] showed an IC50 of 18 nM.
In the case of `CC(=O)N1CCN(c2cc(F)cc(N3CCc4nc(-c5ncccn5)ncc4C3C)n2)CC1` (stereo not shown) [Example 17, 1-[4-[4-fluoro-6-(5-methyl-2-pyrimidin-2-yl-7,8-dihydro-5H-pyrido[4,3-d]pyrimidin-6-yl)-2-pyridyl]piperazin-1-yl]ethanone], it took 15 nM to reach half-maximal inhibition with HBsAg (setting [1]) (IC50).
For the compound `CC1c2cnc(-c3ncccn3)nc2CCN1c1cc(N2CC(F)C2)cc(F)n1` (stereo not shown) [Example 123, 6-[6-fluoro-4-(3-fluoroazetidin-1-yl)-2-pyridyl]-5-methyl-2-pyrimidin-2-yl-7,8-dihydro-5H-pyrido[4,3-d]pyrimidine], the IC50 was 12 nM with HBsAg (setting [1]) and 0.43 nM in the test on HBV DNA.
With `CC1c2cnc(-c3ncccn3)nc2CCN1c1cc(N2CCC(C(N)=O)CC2)cc(F)n1` (stereo not shown) [Example 56, 1-[2-fluoro-6-(5-methyl-2-pyrimidin-2-yl-7,8-dihydro-5H-pyrido[4,3-d]pyrimidin-6-yl)-4-pyridyl]piperidine-4-carboxamide], half-maximal inhibition in the test on HBsAg (setting [1]) (IC50) was put at 37 nM.
Still for that read-out and setting: in the case of `COCCS(=O)(=O)N1CCN(c2cc(F)nc(N3CCc4nc(-c5ncccn5)ncc4C3C)c2)CC1` (stereo not shown) [Example 87, 6-[6-fluoro-4-[4-(2-methoxyethylsulfonyl)piperazin-1-yl]-2-pyridyl]-5-methyl-2-pyrimidin-2-yl-7,8-dihydro-5H-pyrido[4,3-d]pyrimidine] it was 5 nM.
On the same count and under the same terms, for `CC1c2cnc(-c3ncccn3)nc2CCN1c1cc(N(C)S(C)(=O)=O)cc(F)n1` (stereo not shown) [Example 159, N-[2-fluoro-6-(5-methyl-2-pyrimidin-2-yl-7,8-dihydro-5H-pyrido[4,3-d]pyrimidin-6-yl)-4-pyridyl]-N-methyl-methanesulfonamide] the value was 14 nM; for `CC1c2cnc(-c3ncccn3)nc2CCN1c1cc(NCCCCC(N)=O)cc(F)n1` (stereo not shown) [Example 137, 5-[[2-Fluoro-6-(5-methyl-2-pyrimidin-2-yl-7,8-dihydro-5H-pyrido[4,3-d]pyrimidin-6-yl)-4-pyridyl]amino]pentanamide], 120 nM.
As to `CCS(=O)(=O)N1CCN(c2cc(F)nc(N3CCc4nc(-c5ncccn5)ncc4C3C)c2)CC1` (stereo not shown) [Example 90, 6-[4-(4-ethylsulfonylpiperazin-1-yl)-6-fluoro-2-pyridyl]-5-methyl-2-pyrimidin-2-yl-7,8-dihydro-5H-pyrido[4,3-d]pyrimidine], the IC50 in the test on HBsAg (setting [1]) turned out to be 5 nM; in the test with HBV DNA, 1.1 nM.
Turning to `CC1c2cnc(-c3ncccn3)nc2CCN1c1cc(N2CCC(C(=O)NS(C)(=O)=O)CC2)cc(F)n1` (stereo not shown) [Example 66, 1-[2-fluoro-6-(5-methyl-2-pyrimidin-2-yl-7,8-dihydro-5H-pyrido[4,3-d]pyrimidin-6-yl)-4-pyridyl]-N-methylsulfonyl-piperidine-4-carboxamide], the IC50 with HBsAg (setting [1]) was found to be 1940 nM.
